Measurements reported in patent US11795218B2, “Diagnosis and therapy of cancer involving cancer stem cells” (BioNTech AG, priority 2014, dated 2023).
Counter-ions that a name gives are not always drawn.

Key:
[1] = system: human NEC14 xenograft tumors; experiment: Advanced NEC14 subcutaneous xenograft tumor model, IMAB027 with cisplatin or carboplatin; format: in vivo, mice; conditions: advanced s.c. NEC14 xenograft; cisplatin 1 mg/kg i.p. day 6-10; carboplatin 30 mg/kg i.p. day 6, 13, 20; IMAB027 35 mg/kg three times a week from day 6
Experimental: Subcutaneous human NEC14 xenograft tumors were grown to a median size of ˜100 mm^3 before the beginning of the treatment. Mice were treated with 1 mg/kg cisplatin by i.p. injections daily from day 6 to 10 post engraftment and with three 35 mg/kg IMAB027 injections per week (alternating i.v./i.p./i.p.) starting on day 6 as maintenance therapy. […] The arrow marks the time point of therapy start. (B) Individual tumor size in mice at day 24 post graft (mean with ±standard diviation). (C) Survival curves of treated mice. Group size: n=19. P-values: *, p<0.05; **, p<0.01 and ***, p<0.001.
Instead of cisplatin, mice were treated with 30 mg/kg carboplatin on days 6, 13 and 20 by bolus i.p. injections. […] The arrow marks the time point of therapy start. (B) Individual tumor size in mice at day 24 post graft (mean with ±standard diviation). (C) Survival curves of treated mice. Group size: n=19. P-values: *, p<0.05; **, p<0.01 and ***, p<0.001. […]
For treatment of advanced human NEC14 xenograft tumors the human testicular germ cell tumor cell line NEC14 was cultivated according to the instructions of the supplier in RPMI 1640 medium GlutaMAX™ (Life Technologies) containing 10% FCS (Life Technologies) at 3TC in a humidified incubator with 5% CO2. […] Tumor burden were monitored twice a week. […] Inhibition of tumor growth was analyzed using the Kruskal-Wallis test and the post-hoc Dunn's multiple comparison test.

COV362(Luc) cells = experiment: CLDN6 surface expression on COV362(Luc) cells after pretreatment with cytostatic agents (flow cytometry); format: cell-based, human; conditions: 4 days drug (5 ng/ml paclitaxel, 20 μg/ml carboplatin, 25 ng/ml gemcitabine, 20 ng/ml doxorubicin, 7.5 ng/ml topotecan), then 3 or 10 days without drug
Experimental: ADCC activity of IMAB027 in combination with chemotherapy was analyzed using COV362(Luc) target cells. Therefore, cells were treated for 4 days with carboplatin, gemcitabine, paclitaxel, doxorubicin or topotecan at indicated concentrations. After treatment, cells were grown for 3 (A-D) and 10 days (E-J) in the absence of cytostatic drugs, respectively. Control cells were cultured without cytostatics. (A, C, E, G, I) ADCC experiments were performed with IMAB027 (black lines) or an isotype control antibody (grey lines) using PBMC from healthy donors at an effector (PBMC) to target cell ratio of ˜40:1. Data points (n=4 replicates) are depicted as mean±SD. (B, D, F, H, J) Expression of CLDN6 was analyzed by flow cytometry using IMAB027.
The cells were washed twice and resuspended in FACS buffer. The binding was analysed by flow cytometry using a BD FACSArray (BD Biosciences) and FlowJo software (Tree Star Inc.). The live/dead dye propidium iodide (Sigma, P4864) was used to exclude dead cells from the analysis.
The human ovarian carcinoma cell line COV362 stably transfected with luciferase as a reporter was used to determine the influence of carboplatin and paclitaxel on IMAB027-mediated ADCC. COV362(Luc) cells (3×10^6 cells per 150 mm cell culture dish) were grown under standard conditions. After 24 h, cells were treated with 5 ng/ml paclitaxel, 20 μg/ml carboplatin, 25 ng/ml gemcitabine, 20 ng/ml doxorubicin or 7.5 ng/ml topotecan and incubated for 4 days. The medium was changed and the treated cells were grown under standard growth conditions for further 3 days for carboplatin and gemcitabine or 10 days for paclitaxel, doxorubicin or topotecan.

[2] = system: human ES-2(CLDN6) xenograft tumors; experiment: Early ES-2(CLDN6) subcutaneous xenograft tumor model, IMAB027 with paclitaxel; format: in vivo, mice; conditions: s.c. ES-2(CLDN6) xenograft; paclitaxel 15 mg/kg i.p. day 3, 10, 17; IMAB027 35 mg/kg three times a week from day 4; vs control group
Experimental: Subcutaneous human ES-2 xenograft tumors ectopically expressing human CLDN6 were treated with 15 mg/kg paclitaxel on day 3, 10 and 17 post graft by i.p. injections. Antibody maintenance therapy started on day 4 with three 35 mg/kg IMAB027 injections per week (alternating i.v./i.p./i.p.).
Hsd:Athymic Nude-Foxn1^nu mice were engrafted with human cancer cell lines. […] The control group received antibody buffer (vehicle control).
Specifically, for treatment of human ES-2(CLDN6) xenograft tumors, the human ovarian carcinoma cell line ES-2 stably transfected with human CLDN6 was cultivated in Minimum Essential Media (Life Technologies) containing 1 x non-essential amino acids solution (Life Technologies), 700 μg/ml G418 (Life Technologies) and 10% FCS (Life Technologies) at 3TC in a humidified incubator with 5% CO2. For engraftment, 6 week-old female Hsd:Athymic Nude-Foxn1^nu mice were subcutaneously inoculated with 5×10^6 ES-2(CLDN6) cells in 200 μl PBS into the flank. On day 3 post subcutaneous tumor inoculation, mice were treated with either saline control, antibody or chemotherapeutic drug monotherapy and antibody/cytostatic drug combination therapy groups (n=12 per group). […] Tumor burden and animal health were monitored twice a week. […] Inhibition of tumor growth was analyzed using the Kruskal-Wallis test and the post-hoc Dunn's multiple comparison test.

Compound	tumor growth / anti-tumoral efficacy [1]	protein levels of CLDN6 on the cell surface after pretreatment (COV362(Luc) cells)	tumor growth / anti-tumoral activity [2]
N.N.[Cl][Pt][Cl] [cisplatin, cis-diamminedichloroplatinum(II)]	highly significantly reduce tumor growth		
COc1cccc2c1C(=O)c1c(O)c3c(c(O)c1C2=O)C[C@@](O)(C(=O)CO)C[C@@H]3O[C@H]1C[C@H](N)[C@H](O)[C@H](C)O1 [doxorubicin]		increased protein levels of CLDN6 on the cell surface	
Nc1ccn([C@@H]2O[C@H](CO)[C@@H](O)C2(F)F)c(=O)n1 [gemcitabine, 4-amino-1-(2-deoxy-2,2-difluoro-β-D-erythro-pentofuranosyl)pyrimidin-2 (1H)-one]		increased protein levels of CLDN6 on the cell surface	
CC(=O)O[C@H]1C(=O)[C@@]2(C)[C@H]([C@H](OC(=O)c3ccccc3)[C@]3(O)C[C@H](OC(=O)[C@H](O)[C@@H](NC(=O)c4ccccc4)c4ccccc4)C(C)=C1C3(C)C)[C@]1(OC(C)=O)CO[C@@H]1C[C@@H]2O [paclitaxel, (2α,4α,5β,7β,10β,13α)-4,10-bis-(acetyloxy)-13-{[(2R,3S)-3-(benzoylamino)-2-hydroxy-3-phenylpropanoyl]oxy}-1,7-dihydroxy-9-oxo-5,20-epoxytax-11-en-2-yl benzoate]		increased protein levels of CLDN6 on the cell surface	does not show anti-tumoral activity
CC[C@@]1(O)C(=O)OCc2c1cc1n(c2=O)Cc2cc3c(CN(C)C)c(O)ccc3nc2-1 [topotecan, (S)-10-[(dimethylamino)methyl]-4-ethyl-4,9-dihydroxy-1H-pyrano[3′,4′:6,7]indolizino[1,2-b]quinoline-3,14(4H,12H)-dione monohydrochloride]		increased protein levels of CLDN6 on the cell surface	
